Results on one compound are retold here after patent publication US9677109B2, “Rapid determination of microbial growth and antimicrobial susceptibility” (priority 2013, dated 2017).

Type in all cases: cell-based
The test system of one experiment is S. maltophilia (Steno). Description: MADM (BACcel) growth analysis sensitivity, surveillance mini-BAL. The procedure: (§1) Adult MICU patients with identified surrogate were included within 72 hours of intubation and if anticipated to require MV for >48 h. Moribund state or pregnancy were exclusions. Surveillance mini-BAL (Combicath, Plastimed) was performed on Day 1, 3, 5, 7 and 10 of MV. Samples were split and processed for both a) routine respiratory quantitative microbiological culture and sensitivity assays (>48 h result availability) and b) rapid (<8 h) flowcell/surface-capture assays using the MADM system. Viable microorganisms were identified using growth analysis enhanced by a focused VAP antibody panel (S. aureus, P. aeruginosa, A. baumannii). Untypable organisms were also reported. Sensitivity was assessed using growth analysis. Attending physicians were blinded to MADM system results.
(§2) BAL sample were prepared, removing debris and separating microorganisms from other sample material. Sample microorganisms were introduced into a multichannel fluidic cassette as described elsewhere herein. Bacteria were concentrated and retained on the lower surface of all flowcells using low-voltage electrical field (5 min). Antibody labeling of bacteria in flowcells was used to aid identification.
(§3) The automated digital microscopy system was used to perform darkfield imaging of 10 fields of view every 10 minutes for 180 minutes in each flowcell channel. Initial epifluorescence imaging was also performed for antibody detection. […] Identification consisted of probability scores based on microorganism morphology and growth rates. Antibody labeling identification data was also incorporated. Observed microorganisms were then classified as STAU, PSAE, or non-target. Antibiotic responses were used to aid identification when appropriate. Quantitation was performed by counting identified microorganism and computing original specimen CFU/mL.

The next experiment relates to Enteric. The description is as above. Particulars: specimen 005-D7, BACcel ID Enteric, 1.26 × 10^5 CFU/ml. The procedure:
as §1, §2, §3

The subject of a further experiment is S. aureus (STAU). The description is as above. Conditions: specimen 008-D7, BACcel ID STAU, 1.11 × 10^6 CFU/ml. The procedure: as §1, §2, §3
For experiment [1], the system named is Staphylococcus aureus (SA). Nature of the experiment: MADM clone growth in antibiotic agar, simulated blood specimens. Particulars: SA in 6 μg/mL FOX, FIG. 10B, three hours. As for the experimental part:
The MADM system used a custom microscope and pipetting robot, plus an evaluation system, as described herein. 32-channel disposable cassettes (FIG. 4A) enabled live microorganism immobilization for microscopy and fluid exchanges for different test agents. The microscope scanned 40 image fields in each flowcell channel, each channel having organisms extracted from about 3.5 μL of prepared inoculum.
Simulated blood specimens consisted of isolates spiked into 10 mL each of 29 aliquots of two short-fill CPD blood bank bags to make approximately 5 CFU/mL of bacterial target species, confirmed by quantitative culture. Spiked isolates included 14 Staphylococcus aureus (SA), 3 Pseudomonas aeruginosa (PA), or 12 non-target Gram-negative bacilli species. Dilution of each sample with 30 mL of modified TSB culture medium promoted growth. 20 additional control aliquots contained no spikes. 4-hour incubation at 35° C., followed with brief spin cleanup, ended with pellet resuspension into an electrokinetic buffer to make 1 mL samples for MADM system analysis. 20 μL sample aliquots were then pipetted into 14 cassette flowcells. A 5-minute low-voltage electrokinetic capture was performed to concentrate microorganisms on the lower surface of each flowcell where a capture coating immobilized the bacterial cells. […]

For experiment [2], the system named is Staphylococcus aureus (STAU). Description: MADM resistance phenotype test, respiratory specimens. As for the experimental part: (ABCC). Concurrent quantitative culture (qCx) was performed on specimens.
20 μL samples of prepared specimen were pipetted into independent flowcell channels and a low-voltage electrical field was applied for 5 minutes. The electrical field concentrated bacteria onto a functional surface coating that immobilized the bacteria on the lower flowcell surface. Each flowcell channel received only one type of test reagent solution that contained a selective agent if required (only for channels used to test AB, sulbactam 32 μg/mL).
The instrument acquired images at 10-minutes intervals for 180 minutes, using 10 fields of view in each flowcell channel through a 20× objective. Imaging used darkfield illumination. Identification variables included response to selective agents (AB with sulbactam), cell morphology, growth morphology, and growth rate.
Identification algorithms applied to each individual immobilized bacterial cell. The system measured the amount of change in mass over time to compute growth rates. Identification consisted of computing and combining probability scores for morphology, response to selective media, and growth rates to produce a receiver operating characteristic curve (ROC) to derive classification criteria.

For the compound `CO[C@@]1(NC(=O)Cc2cccs2)C(=O)N2C(C(=O)O)=C(COC(N)=O)CS[C@@H]21` [FOX, cefoxitin], the “Phenotype, sensitivity” value in the experiment with S. maltophilia (Steno) (specimen 006-D1, BACcel ID Steno, 7.68 × 10^5 CFU/ml) is “growth, TZP-”; in the experiment on S. maltophilia (Steno) (specimen 006-D3, BACcel ID Steno, 1.60 × 10^4 CFU/ml), “growth, TZP-”; in the experiment with Enteric, “all growth”; in the experiment with S. aureus (STAU), “FOX-R”. Also, the Clone growth result in experiment [1] was “growth indicating MRSA phenotype”. Further, the MADM resistance phenotype result in experiment [2] (specimen DH 425, Mini-BAL) is listed as “R”; in experiment [2] (specimen DH 427, Mini-BAL), “S”; in experiment [2] (specimen DH 439, Mini-BAL), “R”; in experiment [2] (specimen DH 440, BAL), “S”; in experiment [2] (specimen DH 457, BAL), “S”; in experiment [2] (specimen DH 485, BAL), “S”. In addition, the MADM resistance phenotype entry in experiment [2] (specimen DH 509, BAL) is “S”; in experiment [2] (specimen DH 514, Mini-BAL) it was “S”; in experiment [2] (specimen DH 543, BAL), “S”; in experiment [2] (specimen DH 550, BAL), “S”; in experiment [2] (specimen DH 556, Mini-BAL), “S”; in experiment [2] (specimen T12, ETA) it was “R”.
